Experimental data reported in publication PMC12714101, “CD160-Derived Peptide as a Bidirectional Inhibitor Toward Immune Checkpoints BTLA/HVEM and HVEM/LIGHT” (Journal of Medicinal Chemistry, 2025).
Where a SMILES comes first, the peptide text is derived from it.

Target: T1, BTLA/HVEM complex (Homo sapiens, UniProt Q92956)
T1 construct: purchased ACROBiosystems HVM-H52E9 (HVEM-His); BTA-H5255 (BTLA-Fc)
T1 sequence (Q92956 39-202 limits assumed): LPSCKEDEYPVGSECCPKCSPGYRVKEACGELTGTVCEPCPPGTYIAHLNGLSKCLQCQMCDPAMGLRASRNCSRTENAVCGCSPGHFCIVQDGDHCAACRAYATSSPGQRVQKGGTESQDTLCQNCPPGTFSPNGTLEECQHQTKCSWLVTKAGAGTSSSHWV
Assay: ELISA inhibition of BTLA/HVEM complex formation
Assay type: biochemical
Conditions: immobilized HVEM-His, BTLA-Fc 5 μg/mL, PBS-T, 37 °C, mean of three independent experiments; for inhibition at 16.67 µM: peptide 16.67 μM; for inhibition at 50 µM: peptide 50 μM; for inhibition at 150 µM: peptide 150 μM
Description: In the subsequent stage of the study, the potential of the obtained compounds to inhibit the interaction between BTLA and HVEM proteins was evaluated using ELISA, following the methodology described in our previous studies. , HVEM was immobilized on the plate and incubated with peptides at three different concentrations, followed by the addition of Fc-tagged BTLA. Detection was carried out using horseradish peroxidase (HRP) conjugated with anti-human IgG and 3,3′,5,5′-tetramethylbenzidine (TMB) as a substrate. Signal intensity was directly proportional to the amount of BTLA bound to HVEM and inversely proportional to the inhibitory activity of the tested peptides. As a control, BTLA and HVEM were incubated in the absence of peptides.
Recombinant human HVEM protein with a His tag was purchased from ACROBiosystems, Newark, DE, USA (no. HVM-H52E9). Recombinant human protein BTLA-Fc and LIGHT-Fc were also purchased from ACROBiosystems, Newark, DE, USA (no. BTA-H5255 and no. LIT-H5269).
ELISA was performed using transparent 96-well NUNC Maxisorp plates (Thermo Fisher Scientific, Waltham, MA, USA). In the first step, HVEM-His, dissolved in PBS at a concentration of 5 μg/mL (100 μL/well), was immobilized on the plate by overnight incubation at 4 °C. Wells were then blocked with 5% bovine serum albumin (BSA) in PBS containing 0.05% Tween 20 (PBS-T) (200 μL/well). Next, peptides dissolved in PBS-T at concentrations of 150, 50, and 16.67 μM were added to the wells (100 μL/well). Following this, BTLA-Fc in PBS-T at a concentration of 5 μg/mL (100 μL/well) was applied. In the next step, goat anti-human IgG antibody conjugated with the HRP (Bio-Rad Laboratories, Hercules, CA, USA) in PBS-T at a ratio of 1:30,000 (v/v) was added (100 μL/well). Colorimetric detection was performed by adding 100 μL of TMB substrate (Thermo Fisher Scientific, Waltham, MA, USA) to each well and incubating the plate in the dark. At each stage, plates were incubated at 37 °C with continuous shaking for 1 h (except TMB, which was incubated for 15 min). After each incubation, wells were washed five times with PBS-T. Absorbance was measured using an Infinite M200 Pro Reader (Tecan Group Ltd., Männedorf, Switzerland) at wavelengths of 650 nm (measurement wavelength) and 492 nm (reference wavelength). Inhibition assays for the HVEM/LIGHT complex were conducted using the same approach, except that LIGHT was used instead of BTLA. The BTLA/HVEM and HVEM/LIGHT complexes without peptides served as controls. Inhibition percentages were calculated based on the assumption that PBS-T has no effect on the formation of BTLA/HVEM or HVEM/LIGHT complexes. Each ELISA was conducted in at least three independent replicates. The data were analyzed using GraphPad Prism 8 software (San Diego, CA, USA).

CC[C@H](NC(=O)[C@H](CCC(N)=O)NC(=O)[C@H](Cc1ccc(O)cc1)NC(C)=O)C(=O)N[C@H]1CSSC[C@@H](C(=O)NCC(=O)N[C@@H](Cc2c[nH]cn2)C(=O)N[C@@H](Cc2ccccc2)C(=O)N[C@@H](Cc2ccccc2)C(N)=O)NC(=O)[C@H](CC(C)C)NC(=O)[C@H](CCCNC(=N)N)NC(=O)[C@H]([C@@H](C)CC)NC(=O)CNC(=O)[C@H](CO)NC(=O)[C@H](CCCCN)NC(=O)[C@H](CCC(N)=O)NC(=O)[C@H](CO)NC(=O)[C@H](CCCNC(=N)N)NC(=O)[C@H](C)NC1=O [A3, CD160(110–128)^(C112X,Q124C)] (HELM PEPTIDE1{[ac].Y.Q.[Abu].C.A.R.S.Q.K.S.G.I.R.L.C.G.H.F.F.[am]}$PEPTIDE1,PEPTIDE1,5:R3-16:R3$$$V2.0)
inhibition at 16.67 µM: -0.96% | inhibition at 50 µM: -0.72% | inhibition at 150 µM: 3.85%

CC[C@@H]1NC(=O)[C@@H](NC(=O)[C@H](Cc2ccccc2)NC(C)=O)CSSC[C@@H](C(=O)N[C@@H](CCCCN)C(N)=O)NC(=O)[C@H](CO)NC(=O)[C@H]([C@@H](C)O)NC(=O)[C@H](CCC(=O)O)NC(=O)[C@@H]2CCCN2C(=O)[C@H](CO)NC(=O)[C@H](CC)NC(=O)[C@H](CC(=O)O)NC(=O)CNC(=O)[C@H](CO)NC(=O)[C@H](CCCNC(=N)N)NC(=O)[C@H](CC(=O)O)NC(=O)[C@H](CCCCN)NC1=O [C2, CD160(59–75)^(L60C,C61X,L74C)] (HELM PEPTIDE1{[ac].F.C.[Abu].K.D.R.S.G.D.[Abu].S.P.E.T.S.C.K.[am]}$PEPTIDE1,PEPTIDE1,3:R3-17:R3$$$V2.0)
inhibition at 16.67 µM: -0.94% | inhibition at 50 µM: 1% | inhibition at 150 µM: 0.77%

CC[C@@H]1NC(=O)[C@H](CC)NC(=O)[C@@H](NC(=O)[C@H](Cc2ccc(O)cc2)NC(C)=O)CSSC[C@@H](C(=O)N[C@@H](Cc2ccccc2)C(N)=O)NC(=O)[C@H](Cc2c[nH]cn2)NC(=O)CNC(=O)[C@H](CCC(N)=O)NC(=O)[C@H](CC(C)C)NC(=O)[C@H](CCCNC(=N)N)NC(=O)[C@H]([C@@H](C)CC)NC(=O)CNC(=O)[C@H](CO)NC(=O)[C@H](CCCCN)NC(=O)[C@H](CCC(N)=O)NC(=O)[C@H](CO)NC(=O)[C@H](CCCNC(=N)N)NC(=O)[C@H](C)NC1=O [A2, CD160(110–128)^(Q111C,C112X,C113X,F127C)] (HELM PEPTIDE1{[ac].Y.C.[Abu].[Abu].A.R.S.Q.K.S.G.I.R.L.Q.G.H.C.F.[am]}$PEPTIDE1,PEPTIDE1,3:R3-19:R3$$$V2.0)
inhibition at 16.67 µM: 1.45% | inhibition at 50 µM: 3% | inhibition at 150 µM: 2.26%

CC[C@H](NC(=O)[C@H](CC(C)C)NC(=O)[C@H](Cc1ccccc1)NC(C)=O)C(=O)N[C@@H](CCCCN)C(=O)N[C@@H](CC(=O)O)C(=O)N[C@@H](CCCNC(=N)N)C(=O)N[C@@H](CO)C(=O)NCC(=O)N[C@@H](CC(=O)O)C(=O)N[C@@H](CC)C(=O)N[C@@H](CO)C(=O)N1CCC[C@H]1C(=O)N[C@@H](CCC(=O)O)C(=O)N[C@H](C(=O)N[C@@H](CO)C(=O)N[C@@H](CC(C)C)C(=O)N[C@@H](CCCCN)C(N)=O)[C@@H](C)O [C1, CD160(59–75)^(C61X,C68X)] (HELM PEPTIDE1{[ac].F.L.[Abu].K.D.R.S.G.D.[Abu].S.P.E.T.S.L.K.[am]}$$$$V2.0)
inhibition at 16.67 µM: 4.03% | inhibition at 50 µM: 2.63% | inhibition at 150 µM: 1.99%

CC[C@H](NC(=O)[C@H](CC)NC(=O)[C@H](CCC(N)=O)NC(=O)[C@H](Cc1ccc(O)cc1)NC(C)=O)C(=O)N[C@@H](C)C(=O)N[C@@H](CCCNC(=N)N)C(=O)N[C@@H](CO)C(=O)N[C@@H](CCC(N)=O)C(=O)N[C@@H](CCCCN)C(=O)N[C@@H](CO)C(=O)NCC(=O)N[C@H](C(=O)N[C@@H](CCCNC(=N)N)C(=O)N[C@@H](CC(C)C)C(=O)N[C@@H](CCC(N)=O)C(=O)NCC(=O)N[C@@H](Cc1c[nH]cn1)C(=O)N[C@@H](Cc1ccccc1)C(=O)N[C@@H](Cc1ccccc1)C(N)=O)[C@@H](C)CC [A1, CD160(110–128)^(C112X,C113X)] (HELM PEPTIDE1{[ac].Y.Q.[Abu].[Abu].A.R.S.Q.K.S.G.I.R.L.Q.G.H.F.F.[am]}$$$$V2.0)
inhibition at 16.67 µM: 4.31% | inhibition at 50 µM: 6.28% | inhibition at 150 µM: 7.44%

CC[C@@H]1NC(=O)[C@H](CC(C)C)NC(=O)[C@@H](NC(=O)[C@@H](NC(=O)[C@@H](NC(=O)[C@H](Cc2ccccc2)NC(C)=O)C(C)C)C(C)C)CSSC[C@@H](C(=O)N[C@@H](CC(C)C)C(=O)N[C@@H](CCCNC(=N)N)C(=O)N[C@@H](CC(C)C)C(N)=O)NC(=O)[C@H](CCCCN)NC(=O)[C@H](CC(C)C)NC(=O)[C@H](CO)NC(=O)[C@H]([C@@H](C)O)NC(=O)[C@H](CCC(=O)O)NC(=O)[C@@H]2CCCN2C(=O)[C@H](CO)NC(=O)[C@H](CC)NC(=O)[C@H](CC(=O)O)NC(=O)CNC(=O)[C@H](CO)NC(=O)[C@H](CCCNC(=N)N)NC(=O)[C@H](CC(=O)O)NC(=O)[C@H](CCCCN)NC1=O [B4, CD160(56–79)^(F59C,C61X,C68X,Q76C)] (HELM PEPTIDE1{[ac].F.V.V.C.L.[Abu].K.D.R.S.G.D.[Abu].S.P.E.T.S.L.K.C.L.R.L.[am]}$PEPTIDE1,PEPTIDE1,5:R3-22:R3$$$V2.0)
inhibition at 16.67 µM: -4.42% | inhibition at 50 µM: 0.29% | inhibition at 150 µM: 9.93%

CC[C@H](NC(=O)[C@H](CC(C)C)NC(=O)[C@H](Cc1ccccc1)NC(=O)[C@@H](NC(=O)[C@@H](NC(=O)[C@H](Cc1ccccc1)NC(C)=O)C(C)C)C(C)C)C(=O)N[C@@H](CCCCN)C(=O)N[C@@H](CC(=O)O)C(=O)N[C@@H](CCCNC(=N)N)C(=O)N[C@@H](CO)C(=O)NCC(=O)N[C@@H](CC(=O)O)C(=O)N[C@@H](CC)C(=O)N[C@@H](CO)C(=O)N1CCC[C@H]1C(=O)N[C@@H](CCC(=O)O)C(=O)N[C@H](C(=O)N[C@@H](CO)C(=O)N[C@@H](CC(C)C)C(=O)N[C@@H](CCCCN)C(=O)N[C@@H](CCC(N)=O)C(=O)N[C@@H](CC(C)C)C(=O)N[C@@H](CCCNC(=N)N)C(=O)N[C@@H](CC(C)C)C(N)=O)[C@@H](C)O [B1, CD160(56–79)^(C61X,C68X)] (HELM PEPTIDE1{[ac].F.V.V.F.L.[Abu].K.D.R.S.G.D.[Abu].S.P.E.T.S.L.K.Q.L.R.L.[am]}$$$$V2.0)
inhibition at 16.67 µM: 1.49% | inhibition at 50 µM: 4.68%

CC[C@@H]1NC(=O)[C@@H](NC(=O)[C@H](Cc2ccccc2)NC(=O)[C@@H](NC(=O)[C@@H](NC(=O)[C@H](Cc2ccccc2)NC(C)=O)C(C)C)C(C)C)CSSC[C@@H](C(=O)N[C@@H](CCCCN)C(=O)N[C@@H](CCC(N)=O)C(=O)N[C@@H](CC(C)C)C(=O)N[C@@H](CCCNC(=N)N)C(=O)N[C@@H](CC(C)C)C(N)=O)NC(=O)[C@H](CO)NC(=O)[C@H]([C@@H](C)O)NC(=O)[C@H](CCC(=O)O)NC(=O)[C@@H]2CCCN2C(=O)[C@H](CO)NC(=O)[C@H](CC)NC(=O)[C@H](CC(=O)O)NC(=O)CNC(=O)[C@H](CO)NC(=O)[C@H](CCCNC(=N)N)NC(=O)[C@H](CC(=O)O)NC(=O)[C@H](CCCCN)NC1=O [B3, CD160(56–79) ^(L60C,C61X,C68X,L74C)] (HELM PEPTIDE1{[ac].F.V.V.F.C.[Abu].K.D.R.S.G.D.[Abu].S.P.E.T.S.C.K.Q.L.R.L.[am]}$PEPTIDE1,PEPTIDE1,6:R3-20:R3$$$V2.0)
inhibition at 16.67 µM: -4.44% | inhibition at 50 µM: -5.5% | inhibition at 150 µM: -4.74%
